Data published in ChEMBL document CHEMBL1201862, “PubChem BioAssay data set” (2004).
Active and inactive are the calls of the source.

What was measured:
[1] = biological target: T1, E3 ubiquitin-protein ligase XIAP (Homo sapiens, UniProt P98170); test: XIAP antagonists, biochemical, IAP family, fluorescence polarization (AID 1018); type: functional
[2] = biological target: T1, E3 ubiquitin-protein ligase XIAP; test: Counter Screen using XIAP-Bir3 for Chemical Antagonists of Bir1/2 domains of IAP-family anti-apoptotic proteins. [Related pubchem assays (depositor defined):AID1018, AID1449, AID1514, AID1638, AID1749, AID1750, AID488957, AID488963]
Cytochrome P450 3A4 = Cytochrome P450 3A4 (Homo sapiens, UniProt P08684); conditions: Potency;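 also: confirmatory qHTS run detecting inhibitors and substrates of CYP3A4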
Prothrombin = Prothrombin (Homo sapiens, UniProt P00734); test: Thrombin 1536 HTS Dose Response Confirmation. [Related pubchem assays: 1046 (Thrombin 1536 HTS; hits were confirmed in this assay)]; type: functional
[3] = A cytotoxicity screen of small molecule inhibitors of the PhoP region in Salmonella typhi identified in the primary screen. [Related pubchem assays: 1850, 1864, 1985 ]; type: functional
[4] = intracellular Trypanosoma cruzi inhibitors in host cells – cell-based, plate reader, cherry-pick samples, set 3, dose response (AID 651818); type: functional;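 also: compounds incubated with infected cells for about four days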
[5] = biological target: Glyceraldehyde-3-phosphate dehydrogenase (Homo sapiens, UniProt P04406)
cells = type: functional
Large T antigen = Large T antigen (Simian virus 40, UniProt P03070); type: functional, Betapolyomavirus macacae;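 also: Confirmatory-stage PubChem screen for compounds that inhibit SV40 T antigen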
Genome polyprotein = Genome polyprotein (dengue virus type 2, UniProt P29990); test: Dengue-2 NS5 methyltransferase inhibitors, primary screen, biochemical, confirmation dose response (AID 588689); type: functional
[6] = CRF-BP/CRF-R2 complex antagonists, dose response, cell-based, uHTS hits, 384-well (AID 651639); type: functional, Homo sapiens; conditions: read-out: IC50_Mean
[7] = biological target: T2, Corticotropin-releasing factor receptor 2/Corticotropin-releasing factor-binding protein (Homo sapiens, UniProt P24387+Q13324); test: Dose Response confirmation of uHTS hits for small molecule antagonists of the CRF-binding protein and CRF-R2 receptor complex.; type: functional; conditions: read-out: IC50_Mean
T2 sequence (Q13324 whole entry): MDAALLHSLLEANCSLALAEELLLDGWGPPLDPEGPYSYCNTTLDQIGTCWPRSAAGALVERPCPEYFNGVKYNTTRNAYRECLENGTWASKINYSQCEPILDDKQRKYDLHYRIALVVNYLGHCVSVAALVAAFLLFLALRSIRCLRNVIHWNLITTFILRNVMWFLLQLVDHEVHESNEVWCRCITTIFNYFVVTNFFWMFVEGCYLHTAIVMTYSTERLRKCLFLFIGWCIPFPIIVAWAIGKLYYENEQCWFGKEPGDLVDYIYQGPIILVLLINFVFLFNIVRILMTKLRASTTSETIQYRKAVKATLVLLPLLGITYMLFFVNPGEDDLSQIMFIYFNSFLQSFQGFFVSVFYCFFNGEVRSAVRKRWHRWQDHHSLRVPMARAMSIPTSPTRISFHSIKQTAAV
T2 sequence (P24387 whole entry): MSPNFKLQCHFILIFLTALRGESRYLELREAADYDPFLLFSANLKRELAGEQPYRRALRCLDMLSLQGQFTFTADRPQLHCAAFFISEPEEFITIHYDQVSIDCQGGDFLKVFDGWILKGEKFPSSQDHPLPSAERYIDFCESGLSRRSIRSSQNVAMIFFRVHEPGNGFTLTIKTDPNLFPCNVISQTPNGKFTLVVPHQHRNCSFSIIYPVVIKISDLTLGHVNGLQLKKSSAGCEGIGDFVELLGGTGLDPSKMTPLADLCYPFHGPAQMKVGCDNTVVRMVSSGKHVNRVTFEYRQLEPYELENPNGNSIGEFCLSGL

[8] = biological target: T2, Corticotropin-releasing factor receptor 2/Corticotropin-releasing factor-binding protein; test: activators of CRF receptor 2 with binding protein – uHTS hits, confirmation (AID 602473); type: functional; conditions: read-out: EC50_Mean
Protein RecA = biological target: T3, Protein RecA (Mycobacterium tuberculosis, UniProt P9WHJ3); test: Fluorescence Cell-Free Homogeneous Dose Retest to Identify Inhibitors of RecA-Intein Splicing Activity. [Related pubchem assays (depositor defined):AID2097, AID2223, AID489010, AID492950]; type: functional
T3 sequence (P9WHJ3 whole entry): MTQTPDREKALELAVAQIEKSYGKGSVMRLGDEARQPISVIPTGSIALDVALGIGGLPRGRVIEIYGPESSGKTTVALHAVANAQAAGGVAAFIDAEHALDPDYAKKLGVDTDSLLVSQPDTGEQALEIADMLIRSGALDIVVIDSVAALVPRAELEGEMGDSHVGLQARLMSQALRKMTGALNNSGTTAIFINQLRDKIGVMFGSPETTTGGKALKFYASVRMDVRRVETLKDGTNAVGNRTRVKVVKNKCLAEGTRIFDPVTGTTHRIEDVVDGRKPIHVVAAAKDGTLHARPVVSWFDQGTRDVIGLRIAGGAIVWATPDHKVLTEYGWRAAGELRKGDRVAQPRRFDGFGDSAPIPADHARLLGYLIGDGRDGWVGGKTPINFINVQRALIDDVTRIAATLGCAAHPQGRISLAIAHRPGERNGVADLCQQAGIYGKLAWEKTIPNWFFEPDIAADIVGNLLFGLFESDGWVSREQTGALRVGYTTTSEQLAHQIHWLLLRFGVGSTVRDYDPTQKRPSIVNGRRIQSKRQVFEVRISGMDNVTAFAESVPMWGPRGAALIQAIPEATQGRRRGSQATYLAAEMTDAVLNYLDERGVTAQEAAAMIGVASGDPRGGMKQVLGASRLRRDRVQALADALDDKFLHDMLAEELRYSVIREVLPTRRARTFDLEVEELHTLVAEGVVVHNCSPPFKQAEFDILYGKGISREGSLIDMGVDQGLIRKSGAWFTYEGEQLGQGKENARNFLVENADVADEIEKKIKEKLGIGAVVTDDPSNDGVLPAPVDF

[9] = biological target: T4, Replicative DNA helicase DnaB (Mycobacterium tuberculosis, UniProt P9WMR3); test: DnaB intein splicing inhibitors, dose response, biochemical, cell-free fluorescence (AID 449749); type: functional
T4 sequence (P9WMR3 whole entry): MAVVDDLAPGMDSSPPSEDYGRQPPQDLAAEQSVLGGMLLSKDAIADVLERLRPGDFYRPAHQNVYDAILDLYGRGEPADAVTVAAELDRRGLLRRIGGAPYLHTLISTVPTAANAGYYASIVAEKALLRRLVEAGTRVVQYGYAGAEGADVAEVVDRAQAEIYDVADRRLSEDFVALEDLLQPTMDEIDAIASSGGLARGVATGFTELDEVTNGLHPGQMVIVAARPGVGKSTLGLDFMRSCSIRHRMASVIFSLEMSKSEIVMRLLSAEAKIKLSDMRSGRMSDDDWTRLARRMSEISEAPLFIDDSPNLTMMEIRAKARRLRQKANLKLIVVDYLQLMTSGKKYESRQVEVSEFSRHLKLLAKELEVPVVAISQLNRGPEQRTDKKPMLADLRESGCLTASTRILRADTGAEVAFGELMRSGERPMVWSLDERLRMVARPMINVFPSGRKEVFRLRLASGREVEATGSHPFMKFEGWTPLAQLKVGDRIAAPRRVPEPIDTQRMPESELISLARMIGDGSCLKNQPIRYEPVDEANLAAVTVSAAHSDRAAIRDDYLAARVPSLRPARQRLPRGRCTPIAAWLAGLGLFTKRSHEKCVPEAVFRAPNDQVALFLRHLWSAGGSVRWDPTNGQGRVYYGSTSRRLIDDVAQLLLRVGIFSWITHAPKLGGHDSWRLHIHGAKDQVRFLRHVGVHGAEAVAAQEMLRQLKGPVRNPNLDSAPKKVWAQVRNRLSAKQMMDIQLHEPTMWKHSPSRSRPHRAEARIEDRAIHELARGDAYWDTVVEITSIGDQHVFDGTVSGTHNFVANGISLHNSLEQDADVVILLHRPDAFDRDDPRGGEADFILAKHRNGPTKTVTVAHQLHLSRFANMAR

[10] = biological target: FAD-linked sulfhydryl oxidase ALR (Homo sapiens, UniProt P55789); test: inhibitors of human ALR sulfhydryl oxidase, dose response, biochemical, H2O2 detection, luminescence, cherry-pick (AID 493248)
[11] = biological target: DNA dC->dU-editing enzyme APOBEC-3G (Homo sapiens, UniProt Q9HC16); test: Dose Response confirmation of small molecule APOBEC3G DNA Deaminase Inhibitors via a fluorescence-based single-stranded DNA deaminase assay. [Related pubchem assays (depositor defined):AID493012, AID493028]; type: functional
H9c2 = test: cells; type: functional, cell-based; conditions: Rattus norvegicus, H9c2, Myocardium;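 also: confirmatory concentration-response retest of ultra-high-throughput screening hits for modulation of myocardial damage; cell death induced by hydrogen peroxide oxidative stress; compound pretreatment for 60 min then peroxide exposure for 2 h; potency is for protecting the cells against peroxide damage rather than for killing them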
[12] = Shn3 3'UTR reporter inhibitors, dose response, cell-based, Clone20 osteoblasts, firefly luciferase, cherry-picked (AID 624132); type: functional;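 also: firefly luciferase luminescence from reporter carrying the Shn3 3'UTR in osteoblasts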
[13] = control 3'UTR Renilla luciferase suppression, dose response, counter-screen for Shn3 inhibitor project, cell-based, Clone20-Shn3RL, cherry-picked (AID 624133); type: functional
[14] = inhibitors of intracellular T. cruzi replication, confirmation, NIH3T3 host cells, beta-gal luminescence (AID 2044); type: functional, cell-based;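 also: intracellular parasites grown in NIH/3T3 mouse fibroblasts as host cells; luminescent beta-galactosidase reporter signal from transgenic T. cruzi replicating inside host cells; inhibitors lower the luminescence signal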
[15] = cytotoxicity toward NIH3T3 fibroblasts, dose response, counter-screen, cell-based, ATP luminescence, mouse fibroblasts (AID 2010); type: functional;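 also: cells exposed to compound for about 90 hours before reading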

Cytochrome P450 3A4, sequence (P08684 whole entry): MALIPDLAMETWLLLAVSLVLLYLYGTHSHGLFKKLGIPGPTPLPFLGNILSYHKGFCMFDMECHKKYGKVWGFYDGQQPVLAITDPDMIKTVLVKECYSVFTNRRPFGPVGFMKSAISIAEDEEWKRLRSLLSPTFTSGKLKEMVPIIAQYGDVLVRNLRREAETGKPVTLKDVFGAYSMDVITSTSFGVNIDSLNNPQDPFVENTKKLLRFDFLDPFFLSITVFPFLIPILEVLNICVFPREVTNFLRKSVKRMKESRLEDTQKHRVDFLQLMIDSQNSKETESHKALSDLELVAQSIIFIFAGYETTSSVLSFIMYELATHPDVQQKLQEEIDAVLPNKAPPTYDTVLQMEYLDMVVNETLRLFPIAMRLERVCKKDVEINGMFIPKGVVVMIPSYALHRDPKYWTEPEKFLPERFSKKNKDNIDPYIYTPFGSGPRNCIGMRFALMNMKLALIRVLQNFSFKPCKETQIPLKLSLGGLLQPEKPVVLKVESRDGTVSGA
T1 sequence (P98170 whole entry): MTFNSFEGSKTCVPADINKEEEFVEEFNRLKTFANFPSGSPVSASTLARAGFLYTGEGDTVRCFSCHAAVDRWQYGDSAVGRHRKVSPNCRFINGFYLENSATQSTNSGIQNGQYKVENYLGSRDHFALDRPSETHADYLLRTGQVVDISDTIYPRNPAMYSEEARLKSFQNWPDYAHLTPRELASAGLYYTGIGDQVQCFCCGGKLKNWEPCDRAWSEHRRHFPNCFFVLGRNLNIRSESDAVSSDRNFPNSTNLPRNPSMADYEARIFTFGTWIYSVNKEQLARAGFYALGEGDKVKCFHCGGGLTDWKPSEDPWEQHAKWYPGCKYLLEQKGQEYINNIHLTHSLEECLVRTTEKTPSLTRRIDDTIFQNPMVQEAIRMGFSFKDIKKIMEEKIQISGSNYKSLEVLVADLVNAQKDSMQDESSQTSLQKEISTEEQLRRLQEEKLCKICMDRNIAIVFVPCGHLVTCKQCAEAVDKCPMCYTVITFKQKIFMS
DNA dC->dU-editing enzyme APOBEC-3G, sequence (Q9HC16 whole entry): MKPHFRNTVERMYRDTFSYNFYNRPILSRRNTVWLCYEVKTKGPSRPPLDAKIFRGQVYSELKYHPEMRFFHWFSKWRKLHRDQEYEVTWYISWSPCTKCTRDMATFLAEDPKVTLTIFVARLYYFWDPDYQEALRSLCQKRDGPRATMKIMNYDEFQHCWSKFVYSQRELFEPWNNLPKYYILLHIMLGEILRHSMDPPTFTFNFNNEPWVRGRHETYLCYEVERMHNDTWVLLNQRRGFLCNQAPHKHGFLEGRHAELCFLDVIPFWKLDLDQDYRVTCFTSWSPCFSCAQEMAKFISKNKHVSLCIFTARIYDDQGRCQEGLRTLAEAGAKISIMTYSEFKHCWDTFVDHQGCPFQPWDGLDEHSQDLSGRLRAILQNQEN
FAD-linked sulfhydryl oxidase ALR, sequence (P55789 whole entry): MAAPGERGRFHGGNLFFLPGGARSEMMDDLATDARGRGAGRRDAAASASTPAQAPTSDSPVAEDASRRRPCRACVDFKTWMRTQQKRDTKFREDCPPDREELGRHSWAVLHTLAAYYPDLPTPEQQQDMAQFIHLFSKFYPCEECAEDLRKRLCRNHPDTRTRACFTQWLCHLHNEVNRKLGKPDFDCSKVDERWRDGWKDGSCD
Glyceraldehyde-3-phosphate dehydrogenase, sequence (P04406 whole entry): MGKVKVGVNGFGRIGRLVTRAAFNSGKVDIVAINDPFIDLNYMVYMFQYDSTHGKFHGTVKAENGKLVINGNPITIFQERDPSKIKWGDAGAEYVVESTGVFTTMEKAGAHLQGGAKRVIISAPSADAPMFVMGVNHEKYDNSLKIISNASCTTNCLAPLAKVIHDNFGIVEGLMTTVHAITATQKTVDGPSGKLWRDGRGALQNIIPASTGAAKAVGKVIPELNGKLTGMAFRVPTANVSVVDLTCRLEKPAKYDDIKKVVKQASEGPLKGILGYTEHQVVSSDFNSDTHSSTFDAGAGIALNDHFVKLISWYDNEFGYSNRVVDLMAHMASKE
Genome polyprotein, sequence (P29990 2492-3391 limits assumed): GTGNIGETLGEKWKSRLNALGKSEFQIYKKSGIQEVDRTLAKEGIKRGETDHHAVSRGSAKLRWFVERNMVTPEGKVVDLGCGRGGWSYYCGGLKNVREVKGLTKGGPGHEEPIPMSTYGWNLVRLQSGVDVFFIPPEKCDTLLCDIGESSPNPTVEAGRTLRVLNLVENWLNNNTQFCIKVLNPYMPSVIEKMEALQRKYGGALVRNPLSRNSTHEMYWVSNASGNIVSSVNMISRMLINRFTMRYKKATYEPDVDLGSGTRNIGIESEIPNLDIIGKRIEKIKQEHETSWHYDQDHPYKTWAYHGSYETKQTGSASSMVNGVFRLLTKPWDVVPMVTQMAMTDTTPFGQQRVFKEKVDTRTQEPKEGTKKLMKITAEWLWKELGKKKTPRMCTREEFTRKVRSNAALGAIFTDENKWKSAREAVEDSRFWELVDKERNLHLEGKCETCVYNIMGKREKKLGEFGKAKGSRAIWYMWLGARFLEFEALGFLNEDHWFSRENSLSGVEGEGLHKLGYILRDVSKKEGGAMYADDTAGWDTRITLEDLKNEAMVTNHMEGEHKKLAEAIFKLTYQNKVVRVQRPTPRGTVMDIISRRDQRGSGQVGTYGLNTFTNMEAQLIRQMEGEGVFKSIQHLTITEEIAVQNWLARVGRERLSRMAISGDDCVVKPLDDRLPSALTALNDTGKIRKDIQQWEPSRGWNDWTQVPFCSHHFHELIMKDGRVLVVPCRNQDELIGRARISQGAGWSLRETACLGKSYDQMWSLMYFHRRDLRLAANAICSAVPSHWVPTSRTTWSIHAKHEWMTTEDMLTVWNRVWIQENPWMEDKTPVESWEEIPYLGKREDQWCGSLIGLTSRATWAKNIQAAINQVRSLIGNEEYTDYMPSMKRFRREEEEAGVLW
Large T antigen, sequence (P03070 whole entry): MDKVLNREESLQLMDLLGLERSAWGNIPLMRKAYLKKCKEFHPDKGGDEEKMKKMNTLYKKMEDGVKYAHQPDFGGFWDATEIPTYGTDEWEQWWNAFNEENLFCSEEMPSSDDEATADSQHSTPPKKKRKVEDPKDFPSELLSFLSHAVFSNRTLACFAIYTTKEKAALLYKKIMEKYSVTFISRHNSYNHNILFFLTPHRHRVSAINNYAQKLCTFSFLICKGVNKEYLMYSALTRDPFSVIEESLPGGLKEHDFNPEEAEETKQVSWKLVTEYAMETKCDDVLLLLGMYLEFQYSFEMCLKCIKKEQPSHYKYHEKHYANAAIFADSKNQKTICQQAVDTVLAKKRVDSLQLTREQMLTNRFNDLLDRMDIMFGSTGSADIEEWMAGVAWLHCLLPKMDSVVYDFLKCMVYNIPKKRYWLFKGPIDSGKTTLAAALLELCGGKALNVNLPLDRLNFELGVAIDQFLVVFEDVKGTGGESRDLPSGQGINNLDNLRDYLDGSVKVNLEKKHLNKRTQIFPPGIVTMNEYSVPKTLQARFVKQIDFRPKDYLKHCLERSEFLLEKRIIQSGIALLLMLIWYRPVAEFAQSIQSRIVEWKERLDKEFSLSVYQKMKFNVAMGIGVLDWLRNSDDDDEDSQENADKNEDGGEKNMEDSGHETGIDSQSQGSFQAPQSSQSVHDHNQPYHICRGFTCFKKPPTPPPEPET

O=S1(=O)CC2N=C(N(Cc3c(F)cccc3Cl)c3ccccc3F)SC2C1 (stereo unspecified)
IC50 [1]: > 100 µM (not active) | IC50 [2]: > 100 µM (inactive)

Cc1c(O)c(O)cc2c1oc1c3ccccc3oc(=O)c21
AC50 (Cytochrome P450 3A4): 20 µM (inconclusive)

CCc1cccc(CC)c1NC(=O)c1cccc(N)c1
IC50 (Prothrombin): > 50 µM (not active)

Cc1cccn2c(=O)c3cc(C(=O)NCC4CCCO4)c(=N)n(C4CCCC4)c3nc12 (stereo unspecified)
EC50 [3]: > 50 µM (active)

C[C@@H]1CN([C@@H](C)CO)C(=O)Cc2cc(NC(=O)Nc3ccc(C(F)(F)F)cc3)ccc2O[C@@H]1CN(C)Cc1ccc(C(F)(F)F)cc1
AC50 [4]: 3.26 µM (active)

Cc1cccc(NC(=S)NC23CN4CN(CN(C4)C2)C3)c1
IC50 (Prothrombin): > 50 µM (not active)

S=C([S-])NCCNC(=S)[S-].[Zn+2]
AC50 (Cytochrome P450 3A4): 25.1 µM (inconclusive)

O=C(O)CSc1nc2ccc(Br)cc2o1
IC50 [5]: > 100 µM (not active)

CC(C)c1ccc(NC(=O)COc2ccccn2)cc1
IC50 (Prothrombin): > 50 µM (not active)

C[C@@H]1CN([C@@H](C)CO)C(=O)Cc2cc(NC(=O)Nc3cccc4ccccc34)ccc2O[C@@H]1CN(C)Cc1ccc(C(F)(F)F)cc1
AC50 [4]: 3.08 µM (active)

COc1cc(/C=C2/C(=O)NN(c3cccc(C)c3)C2=O)ccc1OC(=O)c1ccco1
IC50 (cells): 19.9 µM (active) | IC50 (Large T antigen): 32.1 µM (active) | IC50 (Genome polyprotein): 64 µM (active)

Cc1cc([N+](=O)[O-])ccc1NC1CCCC1
IC50 [6]: 12.8 µM (active) | IC50 [7]: 7.24 µM (active) | EC50 [8]: > 53 µM (inactive)

C[C@@H]1CCCCO[C@@H](CN(C)Cc2ccc(Cl)c(Cl)c2)[C@@H](C)CN([C@H](C)CO)C(=O)c2cc(NS(=O)(=O)c3ccc(F)cc3)ccc2O1
AC50 [4]: 4.38 µM (active)

Nc1nnc(SCc2cc3c(cc2Cl)OCO3)s1
IC50 [6]: > 20 µM (inactive) | IC50 [7]: 22.5 µM (active) | EC50 [8]: > 53 µM (inactive)

C[C@@H]1CN([C@H](C)CO)C(=O)c2cccc(NC(=O)Nc3ccc4c(c3)OCO4)c2O[C@H]1CN(C)Cc1ccc(C(=O)Nc2ccccc2N)cc1
AC50 [4]: 0.743 µM (active)

CSc1nc(-c2ccccc2)nn1C(=O)c1ccc(Cl)cc1
EC50 (Protein RecA): 44.3 µM (active) | IC50 (Prothrombin): 0.725 µM (active) | AC50 [9]: 4.38 µM (active)

O=C(/C=C/c1ccccc1Cl)Nc1cccc(O)c1
EC50 [3]: > 50 µM (active)

CCOC(=O)Cc1csc(NC(=S)NC(=O)c2ccc([N+](=O)[O-])cc2)n1
IC50 [6]: > 20 µM (inactive) | IC50 [7]: 16.7 µM (active) | EC50 [8]: 18 µM (active)

CCOc1ccc(NC(=O)c2ccc(N)cc2)cc1
EC50 [3]: > 50 µM (active)

Cc1ccc(S(=O)(=O)NNc2ccccc2)c(C)c1
EC50 [3]: > 50 µM (active) | AC50 [10]: 0.319 µM (active)

CCCn1c(C)nc2c(N3CCOCC3)nc(C)nc21
AC50 (Cytochrome P450 3A4): 7.94 µM (inconclusive)

O=C(Nc1cc(S(=O)(=O)N2CCOCC2)ccc1N1CCCCC1)c1cc(-c2ccccn2)nc2ccccc12
IC50 [11]: 92.6 µM (active) | IC50 (H9c2): > 79 µM (inactive)

O=C(Nc1cc2c3c(c1)C1CCCC1CN3CC1CCCC21)c1ccc([N+](=O)[O-])cc1 (stereo unspecified)
AC50 [12]: 2.2 µM (active) | IC50 (Prothrombin): > 50 µM (not active) | AC50 [13]: 4.88 µM (active) | EC50 [14]: 1.07 µM (active) | EC50 [15]: > 60 µM (inconclusive)

C=C(CC(=O)OC)C[C@]1(CC(=O)OC)CC2(CC=C(C)C)C(=O)C(C(=O)c3ccccc3)=C(OC(=O)c3ccc(Br)cc3)C(CC=C(C)C)(C1)C2=O (stereo partly specified)
AC50 (Cytochrome P450 3A4): 3.16 µM (inconclusive)

Cc1cc(C)n(/N=C/c2cc([N+](=O)[O-])ccc2O)c(=O)c1
EC50 [3]: > 50 µM (active)

COc1ccc(NC(=O)Nc2ccc3c(c2)CC(=O)N([C@@H](C)CO)C[C@@H](C)[C@@H](CN(C)Cc2ccc(C(=O)Nc4ccccc4N)cc2)O3)cc1
AC50 [4]: 2.51 µM (active)

CSc1nc(C)c(C(=O)C[n+]2ccccc2C)cc1C#N
IC50 [6]: > 20 µM (inactive) | IC50 [7]: < 0.368 µM (active) | EC50 [8]: > 53 µM (inactive)

COc1ccc(-c2coc3ccc(OC4OC(COC(C)=O)C(OC(C)=O)C(OC(C)=O)C4OC(C)=O)c(OC(C)=O)c3c2=O)cc1 (stereo unspecified)
AC50 (Cytochrome P450 3A4): 15.8 µM (inconclusive)

Cc1nc([N+](=O)[O-])c(SCc2ccc(O)c([N+](=O)[O-])c2)[nH]1
IC50 [11]: 77.9 µM (active)

COc1ccccc1CCNC(=O)CCn1nc(C)c2c(C)n(-c3ccccc3)nc2c1=O
IC50 [6]: > 20 µM (inactive) | IC50 [7]: 41.1 µM (active) | EC50 [8]: > 53 µM (inactive)
